Measured values published in patent publication US8106055B2, “Substituted amide compounds” (Gruenenthal GmbH, priority 2007, dated 2012).

What was measured:
[1] = target: T1, serotonin (5-HT) reuptake (Rattus norvegicus, UniProt P31652); test: Inhibition of serotonin (5HT) reuptake in synaptosomes from rat brain; assay type: biochemical; conditions: for 5-HT (inhibition of reuptake of serotonin, % inhibition): test concentration of 10 μM
T1 construct: synaptosomes are freshly isolated from areas of the rat brain; from tissue; host or cells: rat brain synaptosomes (P2 fraction)
T1 sequence (P31652 whole entry): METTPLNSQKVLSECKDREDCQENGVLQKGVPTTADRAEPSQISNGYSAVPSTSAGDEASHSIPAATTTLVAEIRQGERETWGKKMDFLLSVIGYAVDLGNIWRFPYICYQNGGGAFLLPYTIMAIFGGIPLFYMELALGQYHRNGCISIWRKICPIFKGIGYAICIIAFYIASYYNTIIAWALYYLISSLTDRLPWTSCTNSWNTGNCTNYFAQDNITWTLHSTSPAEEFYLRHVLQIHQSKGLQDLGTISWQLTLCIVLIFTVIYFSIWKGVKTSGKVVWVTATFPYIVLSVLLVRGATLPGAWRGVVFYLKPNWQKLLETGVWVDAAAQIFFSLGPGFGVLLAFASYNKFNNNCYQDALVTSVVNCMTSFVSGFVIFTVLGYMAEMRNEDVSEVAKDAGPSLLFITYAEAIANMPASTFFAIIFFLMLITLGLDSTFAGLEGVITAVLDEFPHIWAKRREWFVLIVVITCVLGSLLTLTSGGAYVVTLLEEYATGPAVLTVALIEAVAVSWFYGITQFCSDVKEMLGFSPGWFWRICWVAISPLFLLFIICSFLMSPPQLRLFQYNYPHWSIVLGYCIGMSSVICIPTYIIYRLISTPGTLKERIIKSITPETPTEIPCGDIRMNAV
Method in brief: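 Freshly isolated rat brain synaptosomes (P2 fraction) used for 5-HT reuptake. Test compound at 10 μM, activity given as % inhibition.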

[2] = target: T2, bradykinin 1 receptor (B1R) of the rat (Rattus norvegicus, UniProt P97583); test: Functional investigation on the rat bradykinin 1 receptor (B1R), Ca2+ FLIPR assay in CHO K1 rB1R cells; assay type: cell-based; conditions: test substance 10 μM, Ca2+ FLIPR, CHO K1 rB1R cells; for B1R Ant. r [10 μM] % Inhibition: B1R antagonism rat
T2 construct: expressed in transfected cells; host or cells: CHO K1 cells
T2 sequence (P97583 1-337): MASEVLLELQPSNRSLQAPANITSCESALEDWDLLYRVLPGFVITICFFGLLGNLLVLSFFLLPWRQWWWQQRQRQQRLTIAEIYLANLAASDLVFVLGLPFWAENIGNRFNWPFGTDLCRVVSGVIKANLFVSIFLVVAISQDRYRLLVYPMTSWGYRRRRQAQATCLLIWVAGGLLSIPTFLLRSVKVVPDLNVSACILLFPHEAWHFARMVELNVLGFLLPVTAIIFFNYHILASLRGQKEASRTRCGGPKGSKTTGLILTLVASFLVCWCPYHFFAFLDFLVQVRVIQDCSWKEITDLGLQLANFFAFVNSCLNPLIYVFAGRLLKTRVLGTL
Method in brief: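 Stably transfected CHO K1 cells loaded with Fluo-4; FLIPR Ca2+ fluorescence peak (ex 488/em 540 nm). Compound added first (agonism vs Lys-Des-Arg9-bradykinin ≥50 nM human, Des-Arg9-bradykinin 10 μM rat), then after 10-20 min agonist at EC80; antagonism as % inhibition, IC50 from concentration series, n=2-3, N≥2.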

`COc1ccc(S(=O)(=O)N2CCCCC2COCC(=O)NC2CCC(C(c3cccs3)N(C)C)CC2)cc1` (stereo not drawn) [Example 243] was tested, and the “5-HT (inhibition of reuptake of serotonin, % inhibition)” value [1] was 73% and the “B1R Ant. r [10 μM] % Inhibition” value [2] was 27%.

In the case of `CN(C)C(c1ccc(F)cc1)C1CCC(CCNC(=O)COC2CCCCC2N(C)S(=O)(=O)c2ccc(Cl)c(Cl)c2)CC1` (stereo not drawn) [Example 244], the “5-HT (inhibition of reuptake of serotonin, % inhibition)” value [1] is reported as 88% and the “B1R Ant. r [10 μM] % Inhibition” value [2] is reported as −5%.

For `CN(C)C(c1cccc(F)c1)C1CCC(NC(=O)COCCN(C)S(=O)(=O)c2ccc(OC(F)(F)F)cc2)CC1` (stereo not drawn) [Example 246], the “5-HT (inhibition of reuptake of serotonin, % inhibition)” value [1] was 91% and the “B1R Ant. r [10 μM] % Inhibition” value [2] was 15%.

For `CN(C)C(c1cccc(F)c1)C1CCC(CCNC(=O)COC2CCN(S(=O)(=O)c3ccc(Cl)cc3)C2)CC1` (stereo not drawn) [Example 247], the “5-HT (inhibition of reuptake of serotonin, % inhibition)” value [1] was 89% and the “B1R Ant. r [10 μM] % Inhibition” value [2] was 8%.

For `COc1cc(C)c(S(=O)(=O)N(C)CCOCC(=O)NCC2CCC(C(c3cccc(F)c3)N(C)C)CC2)c(C)c1` (stereo not drawn) [Example 248], the “5-HT (inhibition of reuptake of serotonin, % inhibition)” value [1] was 90% and the “B1R Ant. r [10 μM] % Inhibition” value [2] was 102%.

For `CN(C)C(c1ccc(F)cc1)C1CCC(CNC(=O)COCCN(C)S(=O)(=O)c2ccc(Cl)cc2Cl)CC1` (stereo not drawn) [Example 249], the “5-HT (inhibition of reuptake of serotonin, % inhibition)” value [1] was 95% and the “B1R Ant. r [10 μM] % Inhibition” value [2] was 55%.

For `COc1ccc(S(=O)(=O)N(C)CCOCC(=O)NC2CCC(C(c3cccc(F)c3)N(C)C)CC2)cc1` (stereo not drawn) [Example 250], the “5-HT (inhibition of reuptake of serotonin, % inhibition)” value [1] was 84% and the “B1R Ant. r [10 μM] % Inhibition” value [2] was 38%.

`COc1cc(C)c(S(=O)(=O)N2CCC(OCC(=O)NC3CCC(C(c4cccc(F)c4)N(C)C)CC3)C2)c(C)c1` (stereo not drawn) [Example 251] was tested, and the “5-HT (inhibition of reuptake of serotonin, % inhibition)” value [1] was 98% and the “B1R Ant. r [10 μM] % Inhibition” value [2] was 87%.

In the case of `COc1cc(C)c(S(=O)(=O)N2CCC(OCC(=O)NCC3CCC(C(c4cccc(F)c4)N(C)C)CC3)C2)c(C)c1C` (stereo not drawn) [Example 252], the “5-HT (inhibition of reuptake of serotonin, % inhibition)” value [1] is reported as 93% and the “B1R Ant. r [10 μM] % Inhibition” value [2] is reported as 4%.

In the case of `COc1cc(C)c(S(=O)(=O)N2CCC(OCC(=O)NCCC3CCC(C(c4cccc(F)c4)N(C)C)CC3)C2)c(C)c1C` (stereo not drawn) [Example 253], the “5-HT (inhibition of reuptake of serotonin, % inhibition)” value [1] is reported as 96% and the “B1R Ant. r [10 μM] % Inhibition” value [2] is reported as 18%.

For `COc1cc(C)c(S(=O)(=O)N(CCOCC(=O)NCCC2CCC(C(c3cccs3)N(C)C)CC2)Cc2ccccc2)c(C)c1C` (stereo not drawn) [Example 254], the “5-HT (inhibition of reuptake of serotonin, % inhibition)” value [1] was 94% and the “B1R Ant. r [10 μM] % Inhibition” value [2] was −1%.

`COc1ccc(S(=O)(=O)N2CCCCC2COCC(=O)NC2CCC(C(c3cccc(F)c3)N(C)C)CC2)cc1` (stereo not drawn) [Example 255] was tested, and the “5-HT (inhibition of reuptake of serotonin, % inhibition)” value [1] was 91% and the “B1R Ant. r [10 μM] % Inhibition” value [2] was 47%.

In the case of `CN(C)C(c1ccc(F)cc1)C1CCC(NC(=O)COC2CCCCC2N(C)S(=O)(=O)c2ccc(Cl)c(Cl)c2)CC1` (stereo not drawn) [Example 256], the “5-HT (inhibition of reuptake of serotonin, % inhibition)” value [1] is reported as 84% and the “B1R Ant. r [10 μM] % Inhibition” value [2] is reported as 1%.

With `CN(C)C(c1cccc(F)c1)C1CCC(CNC(=O)COC2CCN(S(=O)(=O)c3ccc(Cl)cc3)C2)CC1` (stereo not drawn) [Example 258] the “5-HT (inhibition of reuptake of serotonin, % inhibition)” value [1] was 84% and the “B1R Ant. r [10 μM] % Inhibition” value [2] was 12%.

In the case of `CN(C)C(c1cccc(F)c1)C1CCC(CCNC(=O)COC2CCN(S(=O)(=O)c3ccc(Cl)cc3Cl)C2)CC1` (stereo not drawn) [Example 259], the “5-HT (inhibition of reuptake of serotonin, % inhibition)” value [1] is reported as 90% and the “B1R Ant. r [10 μM] % Inhibition” value [2] is reported as 25%.

`COc1ccc(S(=O)(=O)N2CCC(OCC(=O)NCC3CCC(C(c4ccc(Cl)cc4)N(C)C)CC3)C2)cc1OC` (stereo not drawn) [Example 260] was tested, and the “5-HT (inhibition of reuptake of serotonin, % inhibition)” value [1] was 88% and the “B1R Ant. r [10 μM] % Inhibition” value [2] was 9%.

For `COc1ccc(S(=O)(=O)N2CCCCC2COCC(=O)NC2CCC(C(c3cccs3)N(C)C)CC2)cc1OC` (stereo not drawn) [Example 261], the “5-HT (inhibition of reuptake of serotonin, % inhibition)” value [1] was 85% and the “B1R Ant. r [10 μM] % Inhibition” value [2] was −3%.

In the case of `COc1ccc(S(=O)(=O)N2CCC(OCC(=O)NCCC3CCC(C(c4cccc(F)c4)N(C)C)CC3)C2)cc1OC` (stereo not drawn) [Example 262], the “5-HT (inhibition of reuptake of serotonin, % inhibition)” value [1] is reported as 90% and the “B1R Ant. r [10 μM] % Inhibition” value [2] is reported as 36%.

`CN(C)C(c1ccc(Cl)cc1)C1CCC(CNC(=O)COCCN(C)S(=O)(=O)c2ccc(F)cc2)CC1` (stereo not drawn) [Example 263] was tested, and the “5-HT (inhibition of reuptake of serotonin, % inhibition)” value [1] was 102% and the “B1R Ant. r [10 μM] % Inhibition” value [2] was 32%.

In the case of `Cc1cc(C)c(S(=O)(=O)N2CCC(OCC(=O)NCCC3CCC(C(c4cccc(F)c4)N(C)C)CC3)C2)c(C)c1` (stereo not drawn) [Example 264], the “5-HT (inhibition of reuptake of serotonin, % inhibition)” value [1] is reported as 82% and the “B1R Ant. r [10 μM] % Inhibition” value [2] is reported as 59%.

With `COc1cc(C)c(S(=O)(=O)N2CCC(OCC(=O)NCC3CCC(C(c4cccc(F)c4)N(C)C)CC3)C2)c(C)c1` (stereo not drawn) [Example 265] the “5-HT (inhibition of reuptake of serotonin, % inhibition)” value [1] was 95% and the “B1R Ant. r [10 μM] % Inhibition” value [2] was 97%.

`CN(C)C(c1cccc(F)c1)C1CCC(NC(=O)COCC2CCCN(S(=O)(=O)c3ccccc3)C2)CC1` (stereo not drawn) [Example 266] was tested, and the “5-HT (inhibition of reuptake of serotonin, % inhibition)” value [1] was 97% and the “B1R Ant. r [10 μM] % Inhibition” value [2] was 24%.

With `CN(C)C(c1ccc(F)cc1)C1CCC(CNC(=O)COCC2CCCN2S(=O)(=O)c2ccc(Cl)c(Cl)c2)CC1` (stereo not drawn) [Example 267] the “5-HT (inhibition of reuptake of serotonin, % inhibition)” value [1] was 94% and the “B1R Ant. r [10 μM] % Inhibition” value [2] was −13%.

In the case of `COc1ccc(S(=O)(=O)N2CCCC2COCC(=O)NC2CCC(C(c3cccc(F)c3)N(C)C)CC2)cc1` (stereo not drawn) [Example 268], the “5-HT (inhibition of reuptake of serotonin, % inhibition)” value [1] is reported as 92% and the “B1R Ant. r [10 μM] % Inhibition” value [2] is reported as 25%.

With `CN(C)C(c1ccc(Cl)cc1)C1CCC(CNC(=O)COC2CCCCC2N(C)S(=O)(=O)c2ccc(Cl)c(Cl)c2)CC1` (stereo not drawn) [Example 269] the “5-HT (inhibition of reuptake of serotonin, % inhibition)” value [1] was 87% and the “B1R Ant. r [10 μM] % Inhibition” value [2] was −3%.

For `CN(C)C(c1cccc(F)c1)C1CCC(NC(=O)COC2CCN(S(=O)(=O)c3ccccc3)C2)CC1` (stereo not drawn) [Example 271], the “5-HT (inhibition of reuptake of serotonin, % inhibition)” value [1] was 93% and the “B1R Ant. r [10 μM] % Inhibition” value [2] was −13%.

For `Cc1ccc(S(=O)(=O)N2CCC(OCC(=O)NCCC3CCC(C(c4cccs4)N(C)C)CC3)C2)cc1` (stereo not drawn) [Example 272], the “5-HT (inhibition of reuptake of serotonin, % inhibition)” value [1] was 88% and the “B1R Ant. r [10 μM] % Inhibition” value [2] was 32%.

In the case of `Cc1ccc(S(=O)(=O)N(C)CCOCC(=O)NCC2CCC(C(c3ccc(Cl)cc3)N(C)C)CC2)cc1` (stereo not drawn) [Example 273], the “5-HT (inhibition of reuptake of serotonin, % inhibition)” value [1] is reported as 91% and the “B1R Ant. r [10 μM] % Inhibition” value [2] is reported as 37%.

For `CN(C)C(c1ccc(Cl)cc1)C1CCC(CCNC(=O)COCCN(C)S(=O)(=O)c2c(Cl)cccc2Cl)CC1` (stereo not drawn) [Example 274], the “5-HT (inhibition of reuptake of serotonin, % inhibition)” value [1] was 81% and the “B1R Ant. r [10 μM] % Inhibition” value [2] was 61%.

With `CN(C)C(c1cccc(F)c1)C1CCC(CNC(=O)COC2CCN(S(=O)(=O)c3ccc(F)cc3)C2)CC1` (stereo not drawn) [Example 275] the “5-HT (inhibition of reuptake of serotonin, % inhibition)” value [1] was 80% and the “B1R Ant. r [10 μM] % Inhibition” value [2] was 17%.

In the case of `CN(C)C(c1cccs1)C1CCC(CNC(=O)COC2CCN(S(=O)(=O)c3ccccc3)CC2)CC1` (stereo not drawn) [Example 276], the “5-HT (inhibition of reuptake of serotonin, % inhibition)” value [1] is reported as 93% and the “B1R Ant. r [10 μM] % Inhibition” value [2] is reported as 14%.

With `CN(C)C(c1cccc(F)c1)C1CCC(NC(=O)COC2CCCN(S(=O)(=O)c3ccccc3)C2)CC1` (stereo not drawn) [Example 277] the “5-HT (inhibition of reuptake of serotonin, % inhibition)” value [1] was 93% and the “B1R Ant. r [10 μM] % Inhibition” value [2] was 4%.

`O=C(COCCN(C1CC1)S(=O)(=O)c1c(Cl)cc(Cl)cc1Cl)NC1CCC(C(c2ccccc2)N2CCCC2)CC1` (stereo not drawn) [Example 603, 2-{2-[cyclopropyl-(2,4,6-trichlorobenzenesulfonyl)-amino]-ethoxy}-N-[4-(phenylpyrrolidin-1-ylmethyl)-cyclohexyl]-acetamide] was tested, and the inhibition at 10 µM ([1]; Table 2, test concentration 10 μM, read-out: 5-HT reuptake) was 74% and the inhibition at 10 µM ([2]; CHO-K1, B1R antagonism rat, read-out: B1R Ant. r [10 μM] % Inhibition) was 85%.
